According to US8501483B2, “Method of assessing cancer status in a breast cancer patient” (University College Dublin, National University of Ireland, …, priority 2008, dated 2013):

Key:
[1] = system: interactions between SRC-1 and HOX-C11; assay: Immunoprecipitation of SRC-1 and subsequent immunoblot for HOX-C11 in endocrine resistant LY2 cells; type: cell-based; settings: endocrine resistant breast cancer LY2 cells, 10^−8 M, FIG. 1
Experimental: FIG. 1: Confirmation of differential interactions between SRC-1 and HOX-C11 in endocrine resistant breast cancer LY2 cells in the presence of tamoxifen (4-OHT) and faslodex (ICI) (10^−8 M) was performed by immunoprecipitation of SRC-1 and subsequent immunoblot for HOX-C11.
(§1) Increased interactions between HOX-C11 and SRC-1 were found in endocrine resistant versus endocrine sensitive breast cancer. Furthermore these interactions were enhanced in the presence of endocrine modulators, tamoxifen and faslodex (FIG. 1). In primary breast cancer tissue HOX-C11 and SRC-1 were co-localised to the nucleus and perinuclear region of the tumour epithelial cells (FIG. 2). A greater interaction occurred in tamoxifen-resistant LY2 cells, compared with the parent MCF-7 sensitive cell line. HOX genes play a central role in ductal formation and lobulo-aleolar development by regulating epithelial proliferation and differentiation in the developing breast and have been implicated in steroid/growth-factor pathway crosstalk. […] S100β has been identified as a possible target gene of the HOX-C11 transcription factor. Several HOX responsive elements have been identified in the promoter of S100β and forced expression of HOX-C11 in neuronal cells induces expression of S100β. […]

HOX-C11 = assay: Immunocytochemistry of HOX-C11 in tamoxifen-resistant cells; type: cell-based
Description: as §1, with “S100β. This family of calcium binding protein is secreted and has previously been associated with poor outcome and reduced disease-free survival in melanoma. Experimental data provides evidence for a functional interaction between SRC-1 and HOX-C11. Knockdown of SRC-1 using siRNA abrogated the HOX-C11 associated induction of S100β (FIG. 4B).” for “S100β.”

Structure (SMILES) | interactions between HOX-C11 and SRC-1 [1] | HOX-C11 localisation when cells were treated (HOX-C11)
C[C@]12CC[C@@H]3c4ccc(O)cc4C[C@@H](CCCCCCCCC[S+]([O-])CCCC(F)(F)C(F)(F)F)[C@H]3[C@@H]1CC[C@@H]2O (stereo partly shown) [faslodex] | enhanced | translocate to the nucleus and peri-nuclear region
CC/C(=C(\c1ccccc1)c1ccc(OCCN(C)C)cc1)c1ccccc1 [tamoxifen] | enhanced | translocate to the nucleus and peri-nuclear region
